Assay results reported in ChEMBL document CHEMBL5647693, “Molecular basis underlying resistance to Mps1/TTK inhibitors” (Oncogene, 2016).

Key:
Experiment in all cases: cells
Type in all cases: functional, cell-based
HCT-116 [1] = details: Homo sapiens, HCT-116, 120 h
DLD-1 [2] = details: Homo sapiens, DLD-1, 120 h
DLD-1 [3] = details: Homo sapiens, DLD-1, 120 h; remark: listed apart in the source
U2OS = details: Homo sapiens, 120 h
HCT-116 [4] = details: Homo sapiens, HCT-116, 120 h; remark: listed apart in the source
DLD-1 [5] = details: Homo sapiens, DLD-1, 120 h; remark: listed apart in the source
HeLa [6] = details: Homo sapiens, 120 h
HeLa [7] = details: Homo sapiens, 120 h; remark: listed apart in the source
HeLa [8] = details: Homo sapiens, 120 h; remark: listed apart in the source
HCT-116 [9] = details: Homo sapiens, HCT-116, 120 h; remark: listed apart in the source
HCT-116 [10] = details: Homo sapiens, HCT-116, 120 h; remark: listed apart in the source
HeLa [11] = details: Homo sapiens, 120 h; remark: listed apart in the source

Row | Compound | IC50 (HCT-116 [1]) [nM] | IC50 (DLD-1 [2]) [nM] | IC50 (DLD-1 [3]) [nM] | IC50 (U2OS) [nM] | IC50 (HCT-116 [4]) [nM] | IC50 (DLD-1 [5]) [nM] | IC50 (HeLa [6]) [nM] | IC50 (HeLa [7]) [nM] | IC50 (HeLa [8]) [nM] | IC50 (HCT-116 [9]) [nM] | IC50 (HCT-116 [10]) [nM] | IC50 (HeLa [11]) [nM]
1 | Cc1cc(N2CCOCC2)ccc1Nc1nc(NC2CCCCC2)c2nc[nH]c2n1 | 1080 | > 2000 | 183 | 106 | 159 | 75.4 | 468 | > 2000 | 282 | > 2000 | 63 | > 2000
2 | c1nc2c(NC3CCCCC3)nc(Nc3ccc(N4CCOCC4)cc3)nc2[nH]1 [REVERSINE] | 530 | > 2000 | 136 | 154 | 138 | 120 | 431 | 125 | 290 | 70 | 78.9 | 116
